Target: T1, hFXR (Homo sapiens, UniProt Q96RI1)
T1 construct: expressed in transfected cells; host or cells: CV-1 cells
T1 sequence (Q96RI1 1-486): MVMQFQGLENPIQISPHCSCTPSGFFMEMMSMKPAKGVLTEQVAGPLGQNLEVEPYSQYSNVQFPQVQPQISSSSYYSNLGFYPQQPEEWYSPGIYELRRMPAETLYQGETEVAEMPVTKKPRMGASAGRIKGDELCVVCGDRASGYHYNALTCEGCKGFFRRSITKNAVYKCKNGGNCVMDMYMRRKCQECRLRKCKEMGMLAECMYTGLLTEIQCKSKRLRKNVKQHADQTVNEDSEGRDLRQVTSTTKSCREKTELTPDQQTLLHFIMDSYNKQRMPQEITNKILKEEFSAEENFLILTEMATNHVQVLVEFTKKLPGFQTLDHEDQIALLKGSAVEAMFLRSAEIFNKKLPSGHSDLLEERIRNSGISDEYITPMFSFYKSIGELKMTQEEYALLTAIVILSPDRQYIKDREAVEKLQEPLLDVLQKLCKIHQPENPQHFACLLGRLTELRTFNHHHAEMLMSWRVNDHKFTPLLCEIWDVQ
T1 sequence (P19793 1-462 partner): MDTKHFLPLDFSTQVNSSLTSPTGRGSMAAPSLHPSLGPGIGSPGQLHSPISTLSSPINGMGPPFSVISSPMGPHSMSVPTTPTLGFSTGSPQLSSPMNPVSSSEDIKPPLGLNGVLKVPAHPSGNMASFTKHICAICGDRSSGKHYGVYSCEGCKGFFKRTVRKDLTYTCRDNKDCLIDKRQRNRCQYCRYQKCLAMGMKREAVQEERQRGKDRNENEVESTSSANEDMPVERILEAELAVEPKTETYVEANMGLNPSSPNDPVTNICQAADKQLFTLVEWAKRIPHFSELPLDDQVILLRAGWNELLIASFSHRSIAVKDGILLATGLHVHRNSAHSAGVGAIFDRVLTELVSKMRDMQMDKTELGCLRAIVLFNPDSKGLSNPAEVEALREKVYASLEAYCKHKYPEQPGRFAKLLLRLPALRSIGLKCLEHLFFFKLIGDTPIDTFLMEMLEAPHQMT
Assay: In Vitro FXR Assay (TK): TK-ECRE-luc reporter in transfected CV-1 cells
Format: cell-based
Conditions: 18 hrs, luminescence, maximum efficacy of <25% of the Fexarmine control classified as '+'
Procedure, shortened: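 CV-1 cells in DMEM with 10% charcoal-stripped FBS were co-transfected with hFXR, hRXR, TK-ECRE-luc reporter and pCMX-YFP plasmids. After 18 h, compounds serially diluted in DMSO were added for a further 18 h, then cells were lysed and luminescence read.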

EC50 [nM]	SMILES
≤ 250	COc1ccc([C@H]2CC[C@H](CN(c3cccc(-c4cnn(C5CC5)c4)c3)C(=O)[C@H]3CC[C@H](C(=O)O)CC3)CC2)cc1C [Compound 17.13, trans-4-((3-(1-Cyclopropyl-1H-pyrazol-4-yl)phenyl)((trans-4-(4-methoxy-3-methylphenyl)cyclohexyl)methyl)carbamoyl)cyclohexanecarboxylic acid]
250 to 1000	COc1ccc([C@H]2CC[C@H](CN(c3cccc(-c4cnc(C5CC5)s4)c3)C(=O)[C@H]3CC[C@H](NC(=O)Cn4ccnc4)CC3)CC2)cc1C [Compound 27.03, trans-4-(2-(1H-Imidazol-1-yl)acetamido)-N-(3-(2-cyclopropylthiazol-5-yl)phenyl)-N-((trans-4-(4-methoxy-3-methylphenyl)cyclohexyl)methyl)cyclohexanecarboxamide]
≤ 250	CNC(=O)O[C@H]1CC[C@H](C(=O)N(C[C@H]2CC[C@H](c3ccc(OC)c(C#N)n3)CC2)c2cc(-c3cnc(C4CC4)s3)ccn2)CC1 [Compound 5.07, trans-4-(((trans-4-(6-Cyano-5-methoxypyridin-2-yl)cyclohexyl)methyl)(4-(2-cyclopropylthiazol-5-yl)pyridin-2-yl)carbamoyl)cyclohexyl methylcarbamate]
≤ 250	COc1ccc([C@H]2CC[C@H](CN(c3cccc(-c4cnc(C5CC5)s4)c3)C(=O)[C@H]3CC[C@H](NC(=O)CSC)CC3)CC2)cc1C [Compound 31.10, trans-N-(3-(2-Cyclopropylthiazol-5-yl)phenyl)-N-((trans-4-(4-methoxy-3-methylphenyl)cyclohexyl)methyl)-4-(2-(methylthio)acetamido) cyclohexanecarboxamide]
≤ 250	COc1ccc([C@H]2CC[C@H](CN(c3cccc(-c4coc(C5CC5)n4)c3)C(=O)[C@H]3CC[C@H](CC(=O)O)CC3)CC2)nc1C [Compound 21.03, 2-(trans-4-((3-(2-Cyclopropyloxazol-4-yl)phenyl)((trans-4-(5-methoxy-6-methylpyridin-2-yl)cyclohexyl)methyl)carbamoyl)cyclohexyl) acetic acid]
≤ 250	CN(C)c1ccc([C@H]2CC[C@H](CN(c3cccc(-c4cnc(C5CC5)s4)c3)C(=O)[C@H]3CC[C@H](C(=O)O)CC3)CC2)cn1 [Compound 16, trans-4-((3-(2-Cyclopropylthiazol-5-yl)phenyl)((trans-4-(6-(dimethylamino)pyridin-3-yl)cyclohexyl)methyl)carbamoyl)cyclohexanecarboxylic acid]

The next lines start with the compound.

SMILES	EC50 [nM]
CCCCCOC(=O)[C@H]1CC[C@H](C(=O)N(C[C@H]2CC[C@H](c3ccc(OC)c(C)c3)CC2)c2cccc(-c3cnn(C4CC4)c3)c2)CC1 [Compound 22.03, trans-Pentyl 4-((3-(1-cyclopropyl-1H-pyrazol-4-yl)phenyl)((trans-4-(4-methoxy-3-methylphenyl)cyclohexyl)methyl)carbamoyl) cyclohexanecarboxylate]	≥ 1000
CNC(=O)O[C@H]1CC[C@H](C(=O)N(C[C@H]2CC[C@H](c3ccc(OC)c(C#N)n3)CC2)c2cc(-c3cnn(C4CC4)c3)ccn2)CC1 [Compound 5.27, trans-4-(((trans-4-(6-Cyano-5-methoxypyridin-2-yl)cyclohexyl)methyl)(4-(1-cyclopropyl-1H-pyrazol-4-yl)pyridin-2-yl)carbamoyl)cyclohexyl methylcarbamate]	≤ 250
COc1ccc([C@H]2CC[C@H](CN(c3cccc(-c4cnn(C5CC5)c4)c3)C(=O)[C@H]3CC[C@H](CNC(C)=O)CC3)CC2)cc1C [Compound 26.13, trans-4-(Acetamidomethyl)-N-(3-(1-cyclopropyl-1H-pyrazol-4-yl)phenyl)-N-((trans-4-(4-methoxy-3-methylphenyl)cyclohexyl)methyl) cyclohexanecarboxamide]	≤ 250
COC(=O)CNC(=O)O[C@H]1CC[C@H](C(=O)N(C[C@H]2CC[C@H](c3ccc(OC)c(C)c3)CC2)c2cccc(-c3cnn(C4CC4)c3)c2)CC1 [Compound 7.17, Methyl 2-((((trans-4-((3-(1-cyclopropyl-1H-pyrazol-4-yl)phenyl)((trans-4-(4-methoxy-3-methylphenyl)cyclohexyl)methyl)carbamoyl)cyclohexyl)oxy)carbonyl)amino)acetate]	≤ 250
CCCC1CN(C(=O)O[C@H]2CC[C@H](C(=O)N(C[C@H]3CC[C@H](c4ccc(OC)c(C)n4)CC3)c3cc(-c4coc(C5CC5)n4)ccn3)CC2)C1 [Compound 7.105, trans-4-((4-(2-Cyclopropyloxazol-4-yl)pyridin-2-yl)((trans-4-(5-methoxy-6-methylpyridin-2-yl)cyclohexyl)methyl)carbamoyl)cyclohexyl 3-propylazetidine-1-carboxylate]	≤ 250
COc1ccc([C@H]2CC[C@H](CN(c3cccc(-c4coc(C(C)C)n4)c3)C(=O)[C@H]3CC[C@H](CC(=O)O)CC3)CC2)cc1C [Compound 21.08, 2-(trans-4-((3-(2-lsopropyloxazol-4-yl)phenyl)((trans-4-(4-methoxy-3-methylphenyl)cyclohexyl)methyl)carbamoyl)cyclohexyl)acetic acid]	≤ 250
COc1ccc([C@H]2CC[C@H](CN(c3cccc(-c4cnn(C5CC5)c4)c3)C(=O)[C@H]3CC[C@H](OC(=O)N4CC(SC)C4)CC3)CC2)cc1C [Compound 6.30, trans-4-((3-(1-Cyclopropyl-1H-pyrazol-4-yl)phenyl)((trans-4-(4-methoxy-3-methylphenyl)cyclohexyl)methyl)carbamoyl)cyclohexyl 3-(methylthio) azetidine-1-carboxylate]	≤ 250
COc1ccc([C@H]2CC[C@H](CN(c3cccc(-c4cnn(C5CC5)c4)c3)C(=O)[C@H]3CC[C@H](OC(=O)N4CC(OC)C4)CC3)CC2)cc1C [Compound 4.06, trans-4-((3-(1-Cyclopropyl-1H-pyrazol-4-yl)phenyl)((trans-4-(4-methoxy-3-methylphenyl)cyclohexyl)methyl)carbamoyl)cyclohexyl 3-methoxyazetidine-1-carboxylate]	≤ 250
COc1ccc(C23CCC(CN(c4cccc(-c5coc(C6CC6)n5)c4)C(=O)[C@H]4CC[C@H](OC(=O)NCCO)CC4)(CC2)CC3)cc1C [Compound 6.45, 4-((3-(2-Cyclopropyloxazol-4-yl)phenyl) ((4-(4-methoxy-3-methylphenyl)bicyclo [2.2.2]octan-1-yl)methyl)carbamoyl) cyclohexyl trans-(2-hydroxyethyl) carbamate]	≤ 250
COc1ccc([C@H]2CC[C@H](CN(c3cccc(-c4cnn(C5CC5)c4)c3)C(=O)[C@H]3CC[C@H](OC(=O)N4CCSCC4)CC3)CC2)cc1C [Compound 6.27, trans-4-((3-(1-Cyclopropyl-1H-pyrazol-4-yl)phenyl)((trans-4-(4-methoxy-3-methylphenyl)cyclohexyl)methyl)carbamoyl)cyclohexyl thiomorpholine-4-carboxylate]	≤ 250
COc1ccc([C@H]2CC[C@H](CN(c3cccc(-c4cnn(C(C)C)c4)c3)C(=O)[C@H]3CC[C@H](OC(=O)NCCCO)CC3)CC2)cc1C [Compound 6.14, trans-4-((3-(1-Isopropyl-1H-pyrazol-4-yl)phenyl)((trans-4-(4-methoxy-3-methylphenyl)cyclohexyl)methyl)carbamoyl)cyclohexyl (3-hydroxypropyl)carbamate]	≤ 250
CNC(=O)O[C@H]1CC[C@H](C(=O)N(C[C@H]2CC[C@H](c3ccc(OC)c(C)c3)CC2)c2cccc(-c3cnc(OC)s3)c2)CC1 [Compound 2.01, trans-4-(((trans-4-(4-Methoxy-3-methylphenyl)cyclohexyl)methyl)(3-(2-methoxythiazol-5-yl)phenyl)carbamoyl)cyclohexyl methylcarbamate]	≤ 250
COc1ccc([C@H]2CC[C@H](CN(c3cccc(-c4coc(C5CC5)n4)c3)C(=O)[C@H]3CC[C@H](OC(=O)NCCO)CC3)CC2)nc1C#N [Compound 6.55, trans-4-(((trans-4-(6-Cyano-5-methoxypyridin-2-yl)cyclohexyl)methyl)(3-(2-cyclopropyloxazol-4-yl)phenyl)carbamoyl)cyclohexyl (2-hydroxyethyl)carbamate]	≤ 250
COc1ccc([C@H]2CC[C@H](CN(c3cccc(-c4cnc(C5CC5)s4)c3)C(=O)[C@H]3CC[C@H](NC(=O)CC[S+](C)[O-])CC3)CC2)cc1C (stereo partly drawn) [Compound 31.13, trans-N-(3-(2-Cyclopropylthiazol-5-yl)phenyl)-N-((trans-4-(4-methoxy-3-methylphenyl)cyclohexyl)methyl)-4-(3-(methylsulfinyl)propanamido) cyclohexanecarboxamide]	250 to 1000
